This note sets out measurements from ChEMBL document CHEMBL1201862, “PubChem BioAssay data set” (2004).

Active and inactive are the calls of the source.

For orientation: IC50 means the point on the concentration scale where inhibition reaches its midpoint. Usually AC50 stands for the concentration giving half of the maximal activity seen. For orientation: EC50 means the midpoint of the concentration-response curve. Broadly, the CC50 is the concentration that lowers cell viability or growth by half.

The target of data set [1] is T1, Coagulation factor XII (Homo sapiens, UniProt P00748).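 Also: activated factor XIIa alpha cleaving a fluorogenic AMC peptide substrate; inhibitor potency from loss of enzyme activity.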
T1 sequence (P00748 whole entry): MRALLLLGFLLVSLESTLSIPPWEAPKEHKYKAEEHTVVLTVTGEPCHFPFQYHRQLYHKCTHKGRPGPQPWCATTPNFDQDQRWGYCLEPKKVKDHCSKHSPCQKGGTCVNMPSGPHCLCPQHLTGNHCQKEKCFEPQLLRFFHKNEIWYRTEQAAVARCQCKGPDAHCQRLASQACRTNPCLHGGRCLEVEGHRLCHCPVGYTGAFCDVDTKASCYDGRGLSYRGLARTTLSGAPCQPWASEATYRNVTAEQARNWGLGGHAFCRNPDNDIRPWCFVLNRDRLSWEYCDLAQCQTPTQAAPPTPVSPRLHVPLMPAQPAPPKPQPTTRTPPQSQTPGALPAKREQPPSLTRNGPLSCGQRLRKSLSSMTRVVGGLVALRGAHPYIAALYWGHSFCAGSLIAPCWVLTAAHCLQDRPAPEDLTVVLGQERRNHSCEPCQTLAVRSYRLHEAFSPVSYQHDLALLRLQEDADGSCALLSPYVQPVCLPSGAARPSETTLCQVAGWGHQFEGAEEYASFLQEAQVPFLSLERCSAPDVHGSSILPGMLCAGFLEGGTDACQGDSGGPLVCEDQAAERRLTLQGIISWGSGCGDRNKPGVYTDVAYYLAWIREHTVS
Format: functional.

Data set [2] addresses Cytochrome P450 3A4 (Homo sapiens, UniProt P08684).
Data set [3] has as its system HeLa. Description: HeLa cell cytotoxicity, dose response, cytotoxicity control for MITF activator project, CellTiter-Glo luminescence, cherry-pick samples (AID 540259). Format: functional, cell-based. Particulars: Homo sapiens.
The target in data set [4] is T2, C-C chemokine receptor type 6 (Homo sapiens, UniProt P51684).
T2 sequence (P51684 whole entry): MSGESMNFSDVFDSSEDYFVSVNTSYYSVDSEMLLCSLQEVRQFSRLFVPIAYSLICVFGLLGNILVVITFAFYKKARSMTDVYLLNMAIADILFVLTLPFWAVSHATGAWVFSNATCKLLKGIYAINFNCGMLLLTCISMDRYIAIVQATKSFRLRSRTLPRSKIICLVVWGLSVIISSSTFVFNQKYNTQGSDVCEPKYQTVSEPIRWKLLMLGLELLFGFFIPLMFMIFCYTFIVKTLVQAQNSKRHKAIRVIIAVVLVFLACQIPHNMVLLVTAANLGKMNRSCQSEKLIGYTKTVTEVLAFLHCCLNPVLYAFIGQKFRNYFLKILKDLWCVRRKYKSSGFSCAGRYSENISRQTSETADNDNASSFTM
The data set is described as follows: CCR6 receptor antagonists, dose response, cell-based, luminescent beta-arrestin readout (AID 504728). Format: functional.

Data set [5] has as its target Beta-galactosidase (Escherichia coli, UniProt Q8VNN2). The data set is described as follows: beta-galactosidase enzyme inhibitors and activators, dose response, artefact control for CCR6 antagonist project, biochemical, E. coli enzyme, set 3 (AID 504712). Format: functional.
Data set [6] deals with Dual specificity tyrosine-phosphorylation-regulated kinase 1A (Rattus norvegicus, UniProt Q63470). Format: biochemical, Homo sapiens.
The nature of data set [7]: inhibitors of firefly luciferase expression or activity, dose response, H4 neuroglioma cells, luminescence (AID 1990). Format: functional, cell-based.
Data set [8] can be described thus: Luminescence Cell-Based Dose Response HTS to Identify Inhibitors of 5'UTR Stem-Loop Driven Prion Protein mRNA Translation in H4 Neuroglioblastoma Cells. [Related pubchem assays: 1827 (Project Summary), 1813 (Primary HTS)]. Format: functional.
Data set [9] in a line: inhibitors of SNCA 5'UTR-driven reporter translation, confirmation, H4 neuroglioma cells, luminescence (AID 1988). Format: functional, cell-based.
Data set [10] concerns the target T3, Ubiquitin-conjugating enzyme E2 N (Homo sapiens, UniProt P61088).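 Also: Dose-response confirmation in a TR-FRET assay detecting UBC13-driven polyubiquitin chain formation, inhibition measured.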
T3 sequence (P61088 whole entry): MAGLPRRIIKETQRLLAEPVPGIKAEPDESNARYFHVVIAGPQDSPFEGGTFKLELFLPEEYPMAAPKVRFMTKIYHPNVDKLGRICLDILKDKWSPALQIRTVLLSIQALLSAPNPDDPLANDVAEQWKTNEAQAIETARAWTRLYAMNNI
Format: functional.

Data set [11] in a line: growth suppression of PTEN-null colon cells, dose response, cell-based, HCT116 PTEN knockout (AID 1047).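 Also: HCT116 colon tumor cells with PTEN knocked out; cells exposed to compound for 60 hours before readout; potency for loss of cell viability measured by luminescence.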 Format: functional.
Data set [12] can be described thus: growth suppression of beta-catenin-knockout colon cells, dose response, cell-based, HCT116, human colon tumor (AID 1045).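 Also: HCT116 colon tumor cells with beta catenin knocked out; cells exposed to compound for 60 hours.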 Format: functional.
Data set [13] addresses NAD-dependent protein deacylase sirtuin-5, mitochondrial (Homo sapiens, UniProt Q9NXA8). Description: SIRT5 desuccinylase inhibitors, dose response, biochemical, fluorescence imaging, cherry-pick, set 5 (AID 720591).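 Also: desuccinylation of succinyl peptide AMC substrate read as fluorescence after trypsin release; potency of inhibitors that lower fluorescence and may act on trypsin instead.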
Data set [14] concerns the target T4, Voltage-gated N-type calcium channel alpha-1B subunit/Amyloid beta A4 precursor protein-binding family A member 1 (Homo sapiens, UniProt Q00975+Q02410). Format: protein assay.
Data set [15] concerns the target T4, Voltage-gated N-type calcium channel alpha-1B subunit/Amyloid beta A4 precursor protein-binding family A member 1. Format: protein assay. The source holds these as a separate data set.
The target of data set [16] is Phospholipase A2 (Homo sapiens, UniProt P04054). Format: functional.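 Also: confirmatory dose-response counterscreen on phospholipase A2, testing hits that came from an ultra-high-throughput screen for ATG4B inhibitors.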
Data set [17] addresses T5, Cysteine protease ATG4B (Homo sapiens, UniProt Q9Y4P1).
T5 sequence (Q9Y4P1 whole entry): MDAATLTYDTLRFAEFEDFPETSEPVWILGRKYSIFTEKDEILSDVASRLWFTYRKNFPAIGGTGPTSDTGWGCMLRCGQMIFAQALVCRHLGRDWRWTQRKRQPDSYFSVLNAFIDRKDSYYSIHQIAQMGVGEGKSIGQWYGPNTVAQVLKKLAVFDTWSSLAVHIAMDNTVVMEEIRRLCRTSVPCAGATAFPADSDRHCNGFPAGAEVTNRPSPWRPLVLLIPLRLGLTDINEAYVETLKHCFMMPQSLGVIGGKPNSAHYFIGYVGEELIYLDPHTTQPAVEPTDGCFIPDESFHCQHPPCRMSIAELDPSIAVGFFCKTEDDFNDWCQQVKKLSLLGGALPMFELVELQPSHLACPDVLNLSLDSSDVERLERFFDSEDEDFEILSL
Format: functional.

Data set [18] deals with Vero. The data set is described as follows: cells. Format: functional. Particulars: Chlorocebus sabaeus.
Data set [19] has as its system Vero. Description: host cell cytotoxicity of antiviral hits, dose response, cytotoxicity control for West Nile virus antiviral project, secondary assay (AID 1650). Format: functional. Particulars: Chlorocebus sabaeus.
Data set [20] deals with Vero. The data set is described as follows: cells. Format: functional, cell-based. Particulars: Chlorocebus sabaeus.
Data set [21] deals with Cytochrome P450 2C9 (Homo sapiens, UniProt P11712).
Data set [22] concerns the target Heat shock protein HSP 90-alpha (Homo sapiens, UniProt P07900). Format: functional, organism-based.
The target of data set [23] is Glucose-6-phosphate 1-dehydrogenase (Homo sapiens, UniProt P11413). The data set is described as follows: human G6PD enzyme inhibitors, dose response, selectivity assay for P. falciparum G6PD inhibitor project, biochemical, fluorescence (AID 504792). Format: functional.
The target of data set [24] is T6, Short transient receptor potential channel 4 (Mus musculus, UniProt Q9QUQ5).
T6 sequence (Q9QUQ5 whole entry): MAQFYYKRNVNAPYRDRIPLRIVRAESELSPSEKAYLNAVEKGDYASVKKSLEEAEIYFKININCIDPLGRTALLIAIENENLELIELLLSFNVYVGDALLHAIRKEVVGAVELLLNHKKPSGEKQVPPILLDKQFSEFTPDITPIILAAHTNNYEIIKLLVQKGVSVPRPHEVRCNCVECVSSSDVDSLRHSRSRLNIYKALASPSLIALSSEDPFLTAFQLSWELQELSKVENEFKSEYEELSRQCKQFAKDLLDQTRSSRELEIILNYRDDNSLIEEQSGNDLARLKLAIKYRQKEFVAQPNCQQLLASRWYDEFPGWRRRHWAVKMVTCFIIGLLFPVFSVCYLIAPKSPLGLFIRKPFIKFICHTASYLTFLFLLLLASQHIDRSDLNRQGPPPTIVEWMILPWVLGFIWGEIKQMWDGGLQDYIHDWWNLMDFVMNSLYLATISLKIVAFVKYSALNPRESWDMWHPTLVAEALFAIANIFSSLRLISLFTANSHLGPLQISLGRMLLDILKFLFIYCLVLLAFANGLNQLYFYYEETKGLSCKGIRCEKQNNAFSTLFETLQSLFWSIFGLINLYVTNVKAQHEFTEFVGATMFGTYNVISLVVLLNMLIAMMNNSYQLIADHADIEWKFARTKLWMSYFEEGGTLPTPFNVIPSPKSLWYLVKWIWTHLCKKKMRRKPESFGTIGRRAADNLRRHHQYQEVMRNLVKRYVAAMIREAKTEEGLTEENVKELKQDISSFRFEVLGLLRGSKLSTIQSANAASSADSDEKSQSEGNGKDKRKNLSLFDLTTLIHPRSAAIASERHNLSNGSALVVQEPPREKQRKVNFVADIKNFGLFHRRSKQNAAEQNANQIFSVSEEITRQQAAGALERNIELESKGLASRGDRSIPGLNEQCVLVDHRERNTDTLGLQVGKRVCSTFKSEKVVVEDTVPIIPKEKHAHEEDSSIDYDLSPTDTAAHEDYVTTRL
The data set is described as follows: mouse TRPC4 channel inhibitors, dose response, cell-based, HEK293 TRPC4/mu-opioid, Fluo-4 calcium (AID 434942).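 Also: potency of inhibitors blocking the TRPC4 calcium response.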 Format: functional.

The target of data set [25] is DNA dC->dU-editing enzyme APOBEC-3G (Homo sapiens, UniProt Q9HC16). Format: functional.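 Also: Dose-response counterscreen measuring inhibition of APOBEC3G DNA deaminase activity, run while confirming APOBEC3A inhibitors.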
The target in data set [26] is DNA dC->dU-editing enzyme APOBEC-3A (Homo sapiens, UniProt P31941). Description: Dose Response confirmation of small molecule APOBEC3A DNA Deaminase Inhibitors via a fluorescence-based single-stranded DNA deaminase assay. [Related pubchem assays (depositor defined):AID493011, AID493024]. Format: functional.
Sequence of DNA dC->dU-editing enzyme APOBEC-3A (P31941 whole entry): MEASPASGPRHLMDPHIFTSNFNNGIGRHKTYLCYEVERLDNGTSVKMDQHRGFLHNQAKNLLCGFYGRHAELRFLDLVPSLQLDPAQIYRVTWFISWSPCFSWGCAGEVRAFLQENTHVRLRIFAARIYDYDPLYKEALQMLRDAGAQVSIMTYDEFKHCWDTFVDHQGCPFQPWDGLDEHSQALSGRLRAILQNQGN

Sequence of Cytochrome P450 3A4 (P08684 whole entry): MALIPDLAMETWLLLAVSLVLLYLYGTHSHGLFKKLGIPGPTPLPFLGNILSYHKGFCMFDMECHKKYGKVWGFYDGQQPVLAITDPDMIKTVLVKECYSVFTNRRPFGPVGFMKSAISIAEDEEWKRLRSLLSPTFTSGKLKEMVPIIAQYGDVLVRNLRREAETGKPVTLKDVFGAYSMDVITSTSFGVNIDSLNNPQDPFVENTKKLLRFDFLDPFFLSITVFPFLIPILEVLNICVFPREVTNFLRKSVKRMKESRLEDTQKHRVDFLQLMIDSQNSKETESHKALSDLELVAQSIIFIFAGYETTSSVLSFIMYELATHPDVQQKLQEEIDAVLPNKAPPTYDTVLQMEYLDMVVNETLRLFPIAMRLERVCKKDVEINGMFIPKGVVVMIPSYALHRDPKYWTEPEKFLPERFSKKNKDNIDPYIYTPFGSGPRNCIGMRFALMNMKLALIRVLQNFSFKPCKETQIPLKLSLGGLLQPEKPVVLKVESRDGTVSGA
Sequence of Beta-galactosidase (Q8VNN2 whole entry): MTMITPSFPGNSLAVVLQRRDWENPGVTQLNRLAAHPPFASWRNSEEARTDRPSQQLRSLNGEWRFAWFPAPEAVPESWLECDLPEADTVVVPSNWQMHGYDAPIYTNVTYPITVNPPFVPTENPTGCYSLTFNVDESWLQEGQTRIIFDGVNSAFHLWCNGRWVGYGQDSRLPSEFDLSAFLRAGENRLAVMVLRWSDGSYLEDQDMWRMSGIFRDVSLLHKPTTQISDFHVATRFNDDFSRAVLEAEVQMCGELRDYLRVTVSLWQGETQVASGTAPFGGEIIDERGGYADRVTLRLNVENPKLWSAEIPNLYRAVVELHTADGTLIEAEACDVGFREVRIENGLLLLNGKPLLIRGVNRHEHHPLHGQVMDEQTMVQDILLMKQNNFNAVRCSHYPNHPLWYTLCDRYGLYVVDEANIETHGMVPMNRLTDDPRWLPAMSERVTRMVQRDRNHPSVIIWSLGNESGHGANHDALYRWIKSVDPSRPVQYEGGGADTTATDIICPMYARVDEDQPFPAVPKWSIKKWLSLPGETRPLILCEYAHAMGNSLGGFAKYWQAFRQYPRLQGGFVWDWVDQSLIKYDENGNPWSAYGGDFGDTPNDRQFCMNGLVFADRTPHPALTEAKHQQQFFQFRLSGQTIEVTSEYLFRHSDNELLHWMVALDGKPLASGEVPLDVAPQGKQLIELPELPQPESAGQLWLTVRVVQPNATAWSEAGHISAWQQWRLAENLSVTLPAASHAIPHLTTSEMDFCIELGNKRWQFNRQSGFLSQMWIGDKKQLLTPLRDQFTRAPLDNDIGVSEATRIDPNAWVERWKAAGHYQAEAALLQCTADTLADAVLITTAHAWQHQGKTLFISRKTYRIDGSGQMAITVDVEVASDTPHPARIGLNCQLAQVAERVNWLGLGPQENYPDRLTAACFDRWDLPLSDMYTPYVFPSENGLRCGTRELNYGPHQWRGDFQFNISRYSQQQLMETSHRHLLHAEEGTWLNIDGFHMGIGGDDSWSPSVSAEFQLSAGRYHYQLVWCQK
T4 sequence (Q00975 whole entry): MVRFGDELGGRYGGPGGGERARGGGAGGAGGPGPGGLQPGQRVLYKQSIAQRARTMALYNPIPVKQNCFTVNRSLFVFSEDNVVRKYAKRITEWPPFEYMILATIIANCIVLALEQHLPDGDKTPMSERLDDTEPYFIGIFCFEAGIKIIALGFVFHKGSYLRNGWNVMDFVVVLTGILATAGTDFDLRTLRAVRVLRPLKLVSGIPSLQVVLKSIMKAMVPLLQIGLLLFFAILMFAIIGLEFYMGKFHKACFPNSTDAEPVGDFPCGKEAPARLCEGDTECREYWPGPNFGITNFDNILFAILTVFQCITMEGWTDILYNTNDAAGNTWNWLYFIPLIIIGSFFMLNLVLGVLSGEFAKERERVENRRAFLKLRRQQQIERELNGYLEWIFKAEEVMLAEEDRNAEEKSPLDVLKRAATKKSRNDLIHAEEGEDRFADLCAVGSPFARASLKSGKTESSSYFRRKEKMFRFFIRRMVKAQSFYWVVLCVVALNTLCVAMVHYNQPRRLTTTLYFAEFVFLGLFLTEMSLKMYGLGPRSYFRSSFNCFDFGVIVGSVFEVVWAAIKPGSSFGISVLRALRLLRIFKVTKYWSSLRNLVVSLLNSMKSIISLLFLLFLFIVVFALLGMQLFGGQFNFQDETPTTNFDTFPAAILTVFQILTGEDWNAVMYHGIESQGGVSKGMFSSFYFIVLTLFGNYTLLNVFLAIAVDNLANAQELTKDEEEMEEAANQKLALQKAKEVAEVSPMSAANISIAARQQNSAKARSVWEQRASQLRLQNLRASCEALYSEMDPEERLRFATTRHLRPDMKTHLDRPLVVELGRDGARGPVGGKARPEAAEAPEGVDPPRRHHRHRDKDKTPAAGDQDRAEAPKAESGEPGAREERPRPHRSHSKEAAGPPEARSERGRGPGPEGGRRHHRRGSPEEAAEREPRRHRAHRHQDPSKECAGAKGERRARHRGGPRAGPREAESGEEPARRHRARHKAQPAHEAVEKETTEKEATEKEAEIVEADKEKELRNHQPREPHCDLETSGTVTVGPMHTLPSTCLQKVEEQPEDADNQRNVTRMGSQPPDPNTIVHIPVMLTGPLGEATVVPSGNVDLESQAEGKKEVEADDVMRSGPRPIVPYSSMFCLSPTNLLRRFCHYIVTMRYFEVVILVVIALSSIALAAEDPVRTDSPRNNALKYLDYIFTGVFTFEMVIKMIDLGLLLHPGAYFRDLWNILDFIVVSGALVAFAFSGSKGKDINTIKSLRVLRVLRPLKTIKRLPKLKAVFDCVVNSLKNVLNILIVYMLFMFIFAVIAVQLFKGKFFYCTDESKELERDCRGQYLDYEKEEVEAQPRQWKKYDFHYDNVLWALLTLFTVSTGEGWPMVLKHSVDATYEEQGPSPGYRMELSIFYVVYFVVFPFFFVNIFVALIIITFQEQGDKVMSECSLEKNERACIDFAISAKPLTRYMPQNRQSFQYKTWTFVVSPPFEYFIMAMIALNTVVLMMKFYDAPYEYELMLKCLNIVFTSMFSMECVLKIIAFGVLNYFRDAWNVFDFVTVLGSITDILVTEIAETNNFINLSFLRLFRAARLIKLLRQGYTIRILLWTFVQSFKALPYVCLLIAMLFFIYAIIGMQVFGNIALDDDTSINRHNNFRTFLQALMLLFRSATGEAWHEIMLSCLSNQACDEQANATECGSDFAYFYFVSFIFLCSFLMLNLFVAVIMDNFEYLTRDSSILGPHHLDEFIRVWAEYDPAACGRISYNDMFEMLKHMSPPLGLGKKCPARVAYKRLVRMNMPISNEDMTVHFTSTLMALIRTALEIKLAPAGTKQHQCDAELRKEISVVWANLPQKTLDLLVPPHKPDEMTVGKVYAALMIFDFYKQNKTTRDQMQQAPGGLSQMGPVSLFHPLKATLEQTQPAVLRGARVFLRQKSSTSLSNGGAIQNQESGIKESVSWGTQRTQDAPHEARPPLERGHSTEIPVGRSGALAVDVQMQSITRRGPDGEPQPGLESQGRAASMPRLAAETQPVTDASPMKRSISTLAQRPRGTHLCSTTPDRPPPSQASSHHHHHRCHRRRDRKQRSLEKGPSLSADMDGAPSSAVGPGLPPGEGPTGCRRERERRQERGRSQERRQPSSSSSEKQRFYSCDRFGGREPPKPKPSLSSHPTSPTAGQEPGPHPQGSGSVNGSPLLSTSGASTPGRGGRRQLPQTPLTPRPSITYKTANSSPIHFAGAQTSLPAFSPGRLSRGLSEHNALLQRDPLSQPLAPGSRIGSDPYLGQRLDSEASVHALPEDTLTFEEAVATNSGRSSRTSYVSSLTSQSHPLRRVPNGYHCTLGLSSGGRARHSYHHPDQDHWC
T4 sequence (Q02410 whole entry): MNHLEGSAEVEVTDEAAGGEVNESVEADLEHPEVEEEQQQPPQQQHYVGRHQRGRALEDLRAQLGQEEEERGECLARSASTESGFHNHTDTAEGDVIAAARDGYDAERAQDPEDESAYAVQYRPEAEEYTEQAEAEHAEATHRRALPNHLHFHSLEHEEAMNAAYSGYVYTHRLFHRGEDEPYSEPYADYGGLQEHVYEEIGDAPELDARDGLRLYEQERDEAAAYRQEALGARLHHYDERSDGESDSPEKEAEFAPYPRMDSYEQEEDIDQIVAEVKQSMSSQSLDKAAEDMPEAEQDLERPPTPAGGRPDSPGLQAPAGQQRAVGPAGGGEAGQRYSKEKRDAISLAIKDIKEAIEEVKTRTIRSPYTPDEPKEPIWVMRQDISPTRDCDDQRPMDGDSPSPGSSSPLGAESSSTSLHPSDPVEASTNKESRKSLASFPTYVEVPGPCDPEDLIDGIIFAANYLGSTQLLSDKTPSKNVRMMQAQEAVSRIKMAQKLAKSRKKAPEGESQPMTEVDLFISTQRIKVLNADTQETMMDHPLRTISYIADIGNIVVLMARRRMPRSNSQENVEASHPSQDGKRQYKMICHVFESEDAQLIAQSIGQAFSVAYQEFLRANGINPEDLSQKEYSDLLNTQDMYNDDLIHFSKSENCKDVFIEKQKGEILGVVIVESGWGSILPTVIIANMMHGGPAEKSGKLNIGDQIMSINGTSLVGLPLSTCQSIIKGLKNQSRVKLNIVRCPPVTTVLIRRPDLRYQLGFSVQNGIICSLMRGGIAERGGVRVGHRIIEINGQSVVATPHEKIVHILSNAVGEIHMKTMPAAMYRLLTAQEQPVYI
Sequence of Phospholipase A2 (P04054 whole entry): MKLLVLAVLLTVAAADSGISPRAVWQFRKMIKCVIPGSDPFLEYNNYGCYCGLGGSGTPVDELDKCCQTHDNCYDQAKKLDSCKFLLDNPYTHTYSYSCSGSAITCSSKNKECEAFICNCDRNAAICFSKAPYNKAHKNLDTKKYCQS

Regarding `O=C(NCc1ccncc1)c1ccc(Br)o1`, the IC50 in [1] is > 50 µM (inactive).
In the case of `CCCn1c(C)c(C(=O)c2ccc3ccccc3c2)c2ccccc21`, in data set [2], the half-maximal activity concentration (AC50) entry was “inconclusive”.
As for `Cc1ccc(NC(=O)c2sc3nc(C)cc(C)c3c2N)cc1`, the AC50 in [3] is 213 µM (active).
The same measure, in the same setting: then `Cc1ccc(OCc2cc(C(=O)N3C[C@H]4C[C@H]5C[C@@H](C4)C[C@H]3C5)no2)cc1C`, with 151 µM (active).
For `N#C/C(=C\c1ccc(-c2cccc([N+](=O)[O-])c2)o1)C(=O)Nc1nc(-c2cccs2)cs1`, the IC50 in [4] and in [5] was > 66.6 µM (inactive) each time.
As to `CCCCn1cnc2sc(-c3ccccc3)cc2c1=O`, in data set [3], the AC50 is 111 µM (active).
Consider `O=C1CCCc2ccccc2N1Cc1ccccc1Cl`, for which the AC50 result in [2] was “inconclusive”.
Consider `CCN(CC)c1c([N+](=O)[O-])c(=O)sc2ccccc12`, for which the AC50 in data set [6] is > 120 µM (inactive).
On to `c1cc2c(cc1C1CCCCC1)c1c3n2CCCNC3CCC1` (stereo unspecified), for which the concentration giving a half-maximal response (EC50) in [7] is > 120 µM (not active); in data set [8], 71.1 µM (active); in data set [9], 18 µM (active); in [11], 5.92 µM (active); in data set [12], 4.46 µM (active). The values for the IC50 in [10], in data set [4] and in data set [5] were > 20 µM (inactive), 19.8 µM (active) and > 66.6 µM (inactive), respectively.
For `O=S(=O)([N-]c1nc2ccccc2nc1-[n+]1ccn(Cc2ccccc2)c1)c1ccc(Cl)cc1`, in [1], the IC50 is > 50 µM (inactive). Also, in data set [13], the AC50 was 24.8 µM (active).
`CC(=O)Nc1ccc(NC(=O)c2ccc(NC(=O)c3ccccc3)cc2)cc1`: the 50% inhibitory concentration (IC50) in [14] was 6.5 µM (active); in [15] it was > 50 µM (inactive).
Consider `CN(C)c1cccc(C(=O)n2cc(C(=O)c3cc(F)ccc3O)cn2)c1`, for which the concentration for half-maximal inhibition (IC50) in [16] is 9.78 µM (active); in [17] it was 7.59 µM (active); in [1], 12.4 µM (active).
Consider `CC1(C)COC(/C=C/c2ccc([N+](=O)[O-])cc2)=N1`, for which the CC50 in data set [18] is 12.4 µM (active); in data set [19], 10.2 µM (active). In [20], the half-maximal inhibitory concentration (IC50) was > 25 µM (active).
Turning to `Cn1cc(Cl)c(C(=O)Nc2nc3ccc([N+](=O)[O-])cc3s2)n1`, the IC50 in data set [14] is 5.21 µM (active); in data set [15], > 50 µM (inactive).
On to `Cc1ccc(Nc2ncc(C(=O)NCCCN3CCN(C)CC3)c3ccccc23)cc1Cl`, for which, in data set [18], the 50% cytotoxic concentration (CC50) was > 25 µM (active). In [20], the half-maximal inhibitory concentration (IC50) is 22.7 µM (active).
As to `CCOC(=O)/C(C#N)=C\N(C)C`, the concentration at half-maximal activity (AC50) entry in [2] was “inconclusive”; in [21], 39.8 µM (inconclusive).
Take `CCC(=O)OCOc1ccc(/C=C2/CCC(CN(C)C)C2=O)cc1` (stereo unspecified): the AC50 in data set [22] was 2.85 µM (active). Besides, the results for the half-maximal inhibitory concentration (IC50) in data set [4], in [5] and in [23] were 15.5 µM (active), > 66.6 µM (inactive) and > 80 µM (inactive), respectively.
As to `COc1cccc(CNC(=O)CCC2CCCN(Cc3cc(Cl)ccc3O)C2)c1` (stereo unspecified), the EC50 in [24] was 2.11 µM (active).
`CC12CCC(C/C1=N/OC(=O)c1cccc([N+](=O)[O-])c1)C2(C)C` (stereo unspecified): the 50% effective concentration (EC50) in data set [24] is 0.531 µM (active).
For `O=[N+]([O-])c1cc2c(cc1/C=N/Nc1nc(O)c3ccccc3n1)OCO2`, the values for the IC50 in [25] and in [26] were 4.7 µM (active) and 3.63 µM (active), respectively.
